Read-outs that look alike come from different tables or passages of the source.
Key:
[1] = target: T1, Human serum albumin (HSA) (Homo sapiens, UniProt P02768); test: Esterase-like activity of HSA toward p-NPA in presence of HA; format: biochemical
T1 construct: I (residues 1–195), II (196–383), III (384–585); purchased Sigma Aldrich A1887

[2] = target: T1, Human serum albumin (HSA); test: Binding displacement measurement using site markers (fluorescence, Stern-Volmer); details: protein:marker 1:1
Procedure: Different site markers warfarin (WAR) for site I and diazepam (DIA) for site II [19], [20] were used for performing displacement experiments. […] The fluorescence emission spectra were recorded as mentioned in fluorescence measurements and the binding constant values of drug–protein–marker were evaluated using Stern–Volmer equation.

[3] = target: T1, Human serum albumin (HSA); test: Differential scanning calorimetry (DSC) thermostability of HSA in presence of HA; format: binding
Procedure: The differential scanning calorimetric measurements were carried out using VP-DSC microcalorimeter (MicroCal, Northampton, MA). The buffer and protein solutions were degassed under mild vacuum prior to the experiment. Samples were prepared in 20 mM sodium phosphate buffer, pH 7.4. […] 1∶0, 1∶5, and 1∶10 were performed from 25 to 90°C at a scan rate of 0.5°C/min. Data were analyzed using Origin software provided with the instrument to obtain the temperature at the midpoint of the unfolding transition (T m) and calorimetric enthalpy (ΔH°).

[4] = design: method as in PMID 12675874; details: cited from earlier work
[5] = target: T1, Human serum albumin (HSA); test: Steady state fluorescence quenching of HSA by HA; format: binding; details: for KSV (Stern-Volmer quenching constant) / n (binding sites): pH 7.4, HSA 5 µM; for TΔS°: van't Hoff
Procedure: Fluorescence emission spectra were recorded in range of 300–400 nm on a Shimadzu 5301PC fluorescence spectrophotometer equipped with water circulator (Julabo Eyela) at excitation wavelength of 295 nm. Both the excitation and emission slits were set at 3 nm. […] Respective blanks were subtracted. […] Furthermore if a quencher, Q, form complex, Q n B, with protein B and have ‘n’ multiple (equivalent and independent) binding sites then quenching reaction is often represented as: [drawing 5] (2) and its binding constant (Kb ) is given by equation 3:[18]
[drawing 6] (3) If the total amount of protein (with and without bound Q) is [B o], then [drawing 7] (4) [drawing 8] (5) where [B] is the concentration of the unbound protein. The fluorescence intensity is proportional to the protein concentration as described below: [drawing 9] (6) then, relationship between the fluorescence intensity and unbound protein is expressed as:
[drawing 10] (7) So, if the formation of a nonfluorescent fluorophore–quencher complex occurs, then, the value of K b can be obtained by using equation 7.

[6] = design: method as in PMID 1643710, PMID 11721007; details: cited from earlier work
[7] = target: T1, Human serum albumin (HSA); test: Isothermal titration calorimetry (ITC), sequential model of two binding sites; details: for van't Hoff enthalpy: equation 12; for ΔCP (change in heat capacity): 25-37 °C
Procedure: Prior to the titration experiment, all solutions were degassed properly on a thermovac. The 1.44 mL sample and reference cell of the calorimeter were loaded with HSA and 20 mM sodium phosphate buffer (pH 7.4), respectively. […] The reference power was set at 16 µcal s^−1. […] Heats of dilution for the ligand and protein were subtracted from the integrated data before curve fitting. The data were fitted and analyzed with a sequential model of two binding sites using Origin 7.0 provided with the MicroCal instrument. Association constant (K b) and standard enthalpy change (ΔH°) were directly obtained after fitting while ΔG° was calculated from equation 8. The ΔS ^o was calculated using the equation: [drawing 13] (10) and change in specific heat capacity can be calculated from the equation:
[drawing 14] (11) Further the standard van’t Hoff enthalpy [drawing 15] at each temperature was calculated using equation: [drawing 16] (12) here, K(T1) and K(T2) are the values of binding constant at temperatures T 1 and T 2 respectively.

T1 sequence (P02768 25-609): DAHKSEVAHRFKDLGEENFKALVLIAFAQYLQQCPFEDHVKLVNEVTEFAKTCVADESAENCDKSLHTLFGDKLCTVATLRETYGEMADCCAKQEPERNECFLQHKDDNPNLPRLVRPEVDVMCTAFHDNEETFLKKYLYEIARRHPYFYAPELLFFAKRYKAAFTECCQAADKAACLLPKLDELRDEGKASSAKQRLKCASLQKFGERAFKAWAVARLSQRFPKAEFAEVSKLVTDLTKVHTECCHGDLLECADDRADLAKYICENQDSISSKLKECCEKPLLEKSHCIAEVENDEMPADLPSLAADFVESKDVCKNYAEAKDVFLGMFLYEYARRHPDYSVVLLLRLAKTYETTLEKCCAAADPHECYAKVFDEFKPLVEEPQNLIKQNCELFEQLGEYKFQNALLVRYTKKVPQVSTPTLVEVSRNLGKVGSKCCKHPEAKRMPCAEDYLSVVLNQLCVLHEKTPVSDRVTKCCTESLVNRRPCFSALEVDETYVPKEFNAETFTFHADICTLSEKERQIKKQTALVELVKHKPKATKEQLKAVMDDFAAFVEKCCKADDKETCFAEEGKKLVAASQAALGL

With O=C(O)CNC(=O)c1ccccc1 [HA, hippuric acid] the “Vmax for hydrolysis of p-NPA by HSA” value ([1]; HSA:HA 1∶0.5, HSA 15 µM, 25 °C) was 0.16 ± 0.02 µM/s, the “Vmax for hydrolysis of p-NPA by HSA” value ([1]; HSA:HA 1∶1, HSA 15 µM, 25 °C) was 0.16 ± 0.01 µM/s and the “Vmax for hydrolysis of p-NPA by HSA” value ([1]; HSA:HA 1∶2, HSA 15 µM, 25 °C) was 0.16 ± 0.02 µM/s. The “Vmax for hydrolysis of p-NPA by HSA” value ([1]; HSA:HA 1∶3, HSA 15 µM, 25 °C) was 0.16 ± 0.01 µM/s, the Ki ([1]; competitive, substrate p-NPA, 25 °C, read-out: K i (inhibitor constant) for esterase-like activity of HSA) was 21.7 µM and the “Mode of inhibition of esterase-like activity of HSA” value ([1]; substrate p-NPA) was “competitively”. The “K sv of HSA-HA in presence of site marker” value ([2]; in presence of DIA (site II marker)) was “(2.03±0.03)× 10^3 M^−1”, the “K sv of HSA-HA in presence of site marker” value ([2]; in presence of WAR (site I marker)) was “(2.74±0.04)×10^3 M^−1” and the “Tm of first sub-transition of HSA (head drawing C00030)” value ([3]; HSA:HA 1∶5, HSA 18 µM) was 57.25±0.01 °C. For the same compound, the “Tm of second sub-transition of HSA (head drawing C00031)” value ([3]; HSA:HA 1∶5, HSA 18 µM) was 62.51±0.09 °C, the “Tm of third sub-transition of HSA (head drawing C00032)” value ([3]; HSA:HA 1∶5, HSA 18 µM) was 73.87±0.04 °C and the “ΔH° of first sub-transition (head drawing C00033)” value ([3]; HSA:HA 1∶5, HSA 18 µM) was 54.41 ± 0.10 kcal/mol. The “ΔH° of second sub-transition (head drawing C00034)” value ([3]; HSA:HA 1∶5, HSA 18 µM) was 56.13 ± 0.12 kcal/mol, the “ΔH° of third sub-transition (head drawing C00035)” value ([3]; HSA:HA 1∶5, HSA 18 µM) was 13.92 ± 0.07 kcal/mol and the “Tm of first sub-transition of HSA (head drawing C00030)” value ([3]; HSA:HA 1∶10, HSA 18 µM) was 58.36±0.08 °C. The “Tm of second sub-transition of HSA (head drawing C00031)” value ([3]; HSA:HA 1∶10, HSA 18 µM) was 63.83±0.02 °C, the “Tm of third sub-transition of HSA (head drawing C00032)” value ([3]; HSA:HA 1∶10, HSA 18 µM) was 73.96±0.03 °C and the “ΔH° of first sub-transition (head drawing C00033)” value ([3]; HSA:HA 1∶10, HSA 18 µM) was 68.47 ± 0.80 kcal/mol. The “ΔH° of second sub-transition (head drawing C00034)” value ([3]; HSA:HA 1∶10, HSA 18 µM) was 57.37 ± 0.60 kcal/mol, the “ΔH° of third sub-transition (head drawing C00035)” value ([3]; HSA:HA 1∶10, HSA 18 µM) was 13.90 ± 0.09 kcal/mol and the “concentration of HA” value ([4]; healthy individual) was “less than 5 mg/L”. The “concentration of HA” value ([4]; patients with end-stage renal disease) was “higher than 247±112 mg/L”, the “k q (bimolecular rate constant)” value ([5]; 25 °C) was “(1.36±0.06 ) ×10^12 M^−1 s^−1” and the “ΔG°” value ([5]; 25 °C) was -5.21 ± 0.02 kcal/mol. For the same compound, the “KSV (Stern-Volmer quenching constant)” value ([5]; 25 °C) was “(7.80±0.36) ×10^3 M^−1”, the “n (binding sites)” value ([5]; 25 °C) was 0.98±0.02 and the “TΔS°” value ([5]; 25 °C) was -23.48 ± 0.24 kcal/mol. For the same compound, the “k q (bimolecular rate constant)” value ([5]; 30 °C) was “(5.77±0.03 ) ×10^11 M^−1 s^−1”, the “ΔG°” value ([5]; 30 °C) was -4.88 ± 0.06 kcal/mol and the “KSV (Stern-Volmer quenching constant)” value ([5]; 30 °C) was “(3.30±0.02) ×10^3 M^−1”. The “n (binding sites)” value ([5]; 30 °C) was 0.99±0.01, the “TΔS°” value ([5]; 30 °C) was -23.88 ± 0.24 kcal/mol and the “k q (bimolecular rate constant)” value ([5]; 37 °C) was “(2.29±0.01 ) ×10^11 M^−1 s^−1”. The “ΔG°” value ([5]; 37 °C) was -4.28 ± 0.01 kcal/mol, the “KSV (Stern-Volmer quenching constant)” value ([5]; 37 °C) was “(1.31±0.08) ×10^3 M^−1” and the “n (binding sites)” value ([5]; 37 °C) was 0.97±0.02. For the same compound, the “TΔS°” value ([5]; 37 °C) was -24.43 ± 0.25 kcal/mol, the “K b (order of magnitude)” value ([5]; spectroscopic results, single site) was ~10^3 and the “elimination of HA through hemodialysis” value [6] was 64%. For the same compound, the “van't Hoff enthalpy” value ([7]; 25 °C, high affinity site) was -11.98 kcal/mol, the “van't Hoff enthalpy” value ([7]; 25 °C, low affinity site) was -24.69 kcal/mol and the “ΔG°” value ([7]; High affinity site, 25 °C) was -6.05 ± 0.10 kcal/mol. The “ΔH°” value ([7]; High affinity site, 25 °C) was -4.41 ± 0.46 kcal/mol, the “TΔS°” value ([7]; High affinity site, 30 °C) was 0.76 ± 0.06 kcal/mol and the “ΔG°” value ([7]; High affinity site, 30 °C) was -5.94 ± 0.01 kcal/mol. The “ΔH°” value ([7]; High affinity site, 30 °C) was -5.18 ± 0.07 kcal/mol, the “TΔS°” value ([7]; High affinity site, 37 °C) was -0.20 ± 0.01 kcal/mol and the “ΔG°” value ([7]; High affinity site, 37 °C) was -5.93 ± 0.02 kcal/mol. The “ΔH°” value ([7]; High affinity site, 37 °C) was -6.14 ± 0.15 kcal/mol, the “TΔS°” value ([7]; Low affinity site, 25 °C) was -2.88 ± 0.40 kcal/mol and the “ΔG°” value ([7]; Low affinity site, 25 °C) was -4.69 ± 0.10 kcal/mol. For the same compound, the “ΔH°” value ([7]; Low affinity site, 25 °C) was -7.58 ± 0.96 kcal/mol, the “TΔS°” value ([7]; Low affinity site, 30 °C) was -5.39 ± 0.35 kcal/mol and the “ΔG°” value ([7]; Low affinity site, 30 °C) was -4.35 ± 0.02 kcal/mol. For the same compound, the “ΔH°” value ([7]; Low affinity site, 30 °C) was -9.74 ± 0.34 kcal/mol, the “TΔS°” value ([7]; Low affinity site, 37 °C) was -6.69 ± 0.36 kcal/mol and the “ΔG°” value ([7]; Low affinity site, 37 °C) was -4.41 ± 0.03 kcal/mol. The “ΔH°” value ([7]; Low affinity site, 37 °C) was -11.11 ± 0.69 kcal/mol, the “K b (order of magnitude)” value ([7]; high affinity site) was ~10^4 and the “ΔCP (change in heat capacity)” value ([7]; high affinity site) was −0.14±0.11 kcal mol^−1°C^−1. For the same compound, the “K b (order of magnitude)” value ([7]; low affinity site) was ~10^3 and the “ΔCP (change in heat capacity)” value ([7]; low affinity site) was −0.28±0.24 kcal mol^−1°C^−1.

Reference: publication PMC3739763 (PLoS ONE, 2013)
